Source: patent publication US20200181192A1, “DISULFIDE BIOCONJUGATION” (The Regents of the University of California, priority 2017, published 2020)

Legend:
[1] = determined by Baran and coworkers; no further studies conducted; cited from earlier work
[2] = Solubility in polar solvents; assay type: physicochemical; conditions: for solubility in polar solvents: acetonitrile, methanol; for solubility in methanol:water mixture: 9:1 methanol:water
Description: Previous bicyclobutane molecules (1a, 1b) were determined by Baran and coworkers to be bench stable so no further studies were conducted on their stability.

[3] = in solvent left on the bench, over 2 days
[4] = in diethyl ether; diphenyl disulfide, benzyl amine, diphenyl acetic acid, 1-butanethiol; GC-MS
Description: To determine the stability and selectivity of bicyclobutane molecules endo-3, exo-3 were solubilized in diethyl ether and tested with a variety of functional groups (diphenyl disulfide, benzyl amine, diphenyl acetic acid, and 1-butanethiol) then analyzed on a GC-MS to confirm the continued presence of starting materials.

Row | solubility in polar solvents [2] | Structure (SMILES) | bench stability [1] | stability in polar solvents by 1H-NMR [3] | solubility in methanol:water mixture [2] | reaction with functional groups (continued presence of starting materials) [4]
1 | not be completely soluble | O=S(=O)(c1ccccc1)C12CC1C2 (stereo not shown) [1a, 1-(phenylsulfonyl)bicyclo[1.1.0]butane] | bench stable | – | – | –
2 | not be completely soluble | Cc1ccc(S(=O)(=O)C23CC2C3)cc1 (stereo not shown) [1b, 1-tosylbicyclo[1.1.0]butane] | bench stable | – | – | –
3 | – | OC[C@H]1[C@H]2C[C@@H]12 [endo-3, Endo-Bicyclo[1.1.-]butane-2-methanol] | – | no change | soluble | apparent only in the case with diphenyl acetic acid and 1-butane thiol
4 | – | OC[C@@H]1[C@H]2C[C@@H]12 [exo-3, Exo-Bicyclo[1.1.-]butane-2-methanol] | – | no change | soluble | apparent only in the case with diphenyl acetic acid and 1-butane thiol
